Measurements as given in the NIST ThermoML archive (doi:10.1016/j.jct.2019.02.011).
± gives the expanded uncertainty stated by the source.

conditions: 288.15 K; 25000 kPa; Liquid; Vibrating tube method

Point of comparison: `CCCO` [propan-1-ol], mass density 824.24 ± 0.57 kg/m3. Against it:
- CO [methanol] — lower, 816.56 ± 0.56 kg/m3

same assay, conditions: 288.15 K; 30000 kPa; Liquid; Vibrating tube method

Point of comparison: `CCCO` [propan-1-ol], mass density 827.24 ± 0.59 kg/m3. Against it:
- COC(=O)OC [dimethyl carbonate] — higher, 1100.63 ± 0.63 kg/m3
- CCO [ethanol] — lower, 816.23 ± 0.59 kg/m3
- CO [methanol] — lower, 820.09 ± 0.58 kg/m3

same assay, conditions: 288.15 K; 35000 kPa; Liquid; Vibrating tube method

Point of comparison: `CO` [methanol], mass density 823.62 ± 0.59 kg/m3. Against it:
- COC(=O)OC [dimethyl carbonate] — higher, 1104.08 ± 0.65 kg/m3
- CCO [ethanol] — lower, 819.12 ± 0.61 kg/m3
- CCCO [propan-1-ol] — higher, 830.04 ± 0.6 kg/m3

same assay, conditions: 288.15 K; 40000 kPa; Liquid; Vibrating tube method

Point of comparison: `CO` [methanol], mass density 827.04 ± 0.6 kg/m3. Against it:
- COC(=O)OC [dimethyl carbonate] — higher, 1107.4 ± 0.67 kg/m3
- CCO [ethanol] — lower, 822.29 ± 0.62 kg/m3
- CCCO [propan-1-ol] — higher, 832.73 ± 0.61 kg/m3

same assay, conditions: 293.15 K; 100 kPa; Liquid; Vibrating tube method

Point of comparison: `COC(=O)OC` [dimethyl carbonate], mass density 1070.06 ± 0.56 kg/m3. Against it:
- CCO [ethanol] — lower, 789.87 ± 0.52 kg/m3
- CO [methanol] — lower, 791.18 ± 0.51 kg/m3
- CCCO [propan-1-ol] — lower, 803.57 ± 0.52 kg/m3

same assay, conditions: 293.15 K; 5000 kPa; Liquid; Vibrating tube method

Point of comparison: `COC(=O)OC` [dimethyl carbonate], mass density 1074.62 ± 0.57 kg/m3. Against it:
- CCO [ethanol] — lower, 793.83 ± 0.53 kg/m3
- CO [methanol] — lower, 795.97 ± 0.52 kg/m3
- CCCO [propan-1-ol] — lower, 807.24 ± 0.53 kg/m3

same assay, conditions: 293.15 K; 10000 kPa; Liquid; Vibrating tube method

Point of comparison: `CCCO` [propan-1-ol], mass density 810.8 ± 0.54 kg/m3. Against it:
- COC(=O)OC [dimethyl carbonate] — higher, 1078.93 ± 0.58 kg/m3
- CCO [ethanol] — lower, 797.88 ± 0.54 kg/m3
- CO [methanol] — lower, 800.47 ± 0.53 kg/m3

same assay, conditions: 293.15 K; 15000 kPa; Liquid; Vibrating tube method

Point of comparison: `CO` [methanol], mass density 804.52 ± 0.54 kg/m3. Against it:
- COC(=O)OC [dimethyl carbonate] — higher, 1083.01 ± 0.59 kg/m3
- CCO [ethanol] — lower, 801.84 ± 0.55 kg/m3
- CCCO [propan-1-ol] — higher, 814.22 ± 0.55 kg/m3

same assay, conditions: 293.15 K; 20000 kPa; Liquid; Vibrating tube method

Point of comparison: `COC(=O)OC` [dimethyl carbonate], mass density 1087.08 ± 0.6 kg/m3. Against it:
- CCO [ethanol] — lower, 805.45 ± 0.57 kg/m3
- CO [methanol] — lower, 808.43 ± 0.55 kg/m3
- CCCO [propan-1-ol] — lower, 817.46 ± 0.56 kg/m3

same assay, conditions: 293.15 K; 25000 kPa; Liquid; Vibrating tube method

Point of comparison: `COC(=O)OC` [dimethyl carbonate], mass density 1091.03 ± 0.61 kg/m3. Against it:
- CCO [ethanol] — lower, 809.12 ± 0.58 kg/m3
- CO [methanol] — lower, 812.34 ± 0.56 kg/m3
- CCCO [propan-1-ol] — lower, 820.74 ± 0.57 kg/m3

same assay, conditions: 293.15 K; 30000 kPa; Liquid; Vibrating tube method

Point of comparison: `CO` [methanol], mass density 815.93 ± 0.58 kg/m3. Against it:
- COC(=O)OC [dimethyl carbonate] — higher, 1094.75 ± 0.63 kg/m3
- CCO [ethanol] — lower, 812.52 ± 0.6 kg/m3
- CCCO [propan-1-ol] — higher, 823.7 ± 0.59 kg/m3

same assay, conditions: 293.15 K; 35000 kPa; Liquid; Vibrating tube method

Point of comparison: `CCO` [ethanol], mass density 815.8 ± 0.61 kg/m3. Against it:
- COC(=O)OC [dimethyl carbonate] — higher, 1098.34 ± 0.64 kg/m3
- CO [methanol] — higher, 819.32 ± 0.59 kg/m3
- CCCO [propan-1-ol] — higher, 826.5 ± 0.6 kg/m3

same assay, conditions: 293.15 K; 40000 kPa; Liquid; Vibrating tube method

Point of comparison: `COC(=O)OC` [dimethyl carbonate], mass density 1101.84 ± 0.66 kg/m3. Against it:
- CCO [ethanol] — lower, 818.81 ± 0.63 kg/m3
- CO [methanol] — lower, 822.48 ± 0.61 kg/m3
- CCCO [propan-1-ol] — lower, 829.09 ± 0.62 kg/m3

same assay, conditions: 298.15 K; 100 kPa; Liquid; Vibrating tube method

Point of comparison: `CCCO` [propan-1-ol], mass density 799.61 ± 0.52 kg/m3. Against it:
- COC(=O)OC [dimethyl carbonate] — higher, 1063.45 ± 0.56 kg/m3
- CCO [ethanol] — lower, 785.59 ± 0.52 kg/m3
- CO [methanol] — lower, 786.76 ± 0.51 kg/m3

same assay, conditions: 298.15 K; 5000 kPa; Liquid; Vibrating tube method

Point of comparison: `COC(=O)OC` [dimethyl carbonate], mass density 1068 ± 0.57 kg/m3. Against it:
- CCO [ethanol] — lower, 789.72 ± 0.53 kg/m3
- CO [methanol] — lower, 791.52 ± 0.52 kg/m3
- CCCO [propan-1-ol] — lower, 803.49 ± 0.53 kg/m3

same assay, conditions: 298.15 K; 10000 kPa; Liquid; Vibrating tube method

Point of comparison: `CO` [methanol], mass density 795.8 ± 0.53 kg/m3. Against it:
- COC(=O)OC [dimethyl carbonate] — higher, 1072.51 ± 0.58 kg/m3
- CCO [ethanol] — lower, 793.76 ± 0.54 kg/m3
- CCCO [propan-1-ol] — higher, 807.15 ± 0.54 kg/m3

same assay, conditions: 298.15 K; 15000 kPa; Liquid; Vibrating tube method

Point of comparison: `CO` [methanol], mass density 800.13 ± 0.54 kg/m3. Against it:
- COC(=O)OC [dimethyl carbonate] — higher, 1076.72 ± 0.59 kg/m3
- CCO [ethanol] — lower, 797.75 ± 0.55 kg/m3
- CCCO [propan-1-ol] — higher, 810.5 ± 0.55 kg/m3

same assay, conditions: 298.15 K; 20000 kPa; Liquid; Vibrating tube method

Point of comparison: `CCO` [ethanol], mass density 801.4 ± 0.57 kg/m3. Against it:
- COC(=O)OC [dimethyl carbonate] — higher, 1080.9 ± 0.6 kg/m3
- CO [methanol] — higher, 804.18 ± 0.55 kg/m3
- CCCO [propan-1-ol] — higher, 813.78 ± 0.56 kg/m3

same assay, conditions: 298.15 K; 25000 kPa; Liquid; Vibrating tube method

Point of comparison: `CCCO` [propan-1-ol], mass density 816.92 ± 0.58 kg/m3. Against it:
- COC(=O)OC [dimethyl carbonate] — higher, 1084.89 ± 0.61 kg/m3
- CCO [ethanol] — lower, 805.07 ± 0.58 kg/m3
- CO [methanol] — lower, 808.04 ± 0.57 kg/m3

same assay, conditions: 298.15 K; 30000 kPa; Liquid; Vibrating tube method

Point of comparison: `CCCO` [propan-1-ol], mass density 820.04 ± 0.59 kg/m3. Against it:
- COC(=O)OC [dimethyl carbonate] — higher, 1088.82 ± 0.62 kg/m3
- CCO [ethanol] — lower, 808.47 ± 0.6 kg/m3
- CO [methanol] — lower, 811.69 ± 0.58 kg/m3

same assay, conditions: 298.15 K; 35000 kPa; Liquid; Vibrating tube method

Molecule `COC(=O)OC` [dimethyl carbonate] has a mass density of 1092.44 ± 0.64 kg/m3.
